Reference: patent US9416115B2, “Fused heterocyclic compounds as ion channel modulators” (Gilead Sciences, Inc., priority 2013, dated 2016)
Read-outs that look alike come from different tables or passages of the source.

Key:
[1] = biological target: wild-type human cardiac sodium channel, hNav1.5 (Homo sapiens, UniProt Q14524); experiment: Peak INa screening assay (tonic block and use-dependent block); assay type: cell-based
Outline: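 Whole-cell automated patch clamp, 23-25° C, on hNav1.5 alpha-only HEK293 cells with Na+ lowered to 40 mM by choline. Block measured after two additions of 1 or 3 μM compound and 200 s wait: tonic at 0.1 Hz, use-dependent at 50th pulse (−20 mV, 20 ms, 3 Hz) from −100 mV, relative to drug-free, rundown corrected.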

[2] = biological target: T1, hNaV1.2 (SCN2A) (Homo sapiens, UniProt Q99250); experiment: Use-dependent inhibition of the CNS Nav1.2 sodium channel; assay type: cell-based; conditions: use-dependent block, 25 Hz, pulse 20, read-out: Nav1.2 UDB 25 Hz 10 uM
T1 construct: expressed in transfected cells
Outline: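 Use-dependent block of human Nav1.2 was measured by automated whole-cell patch clamp (QPatch) in HEK-293 cells stably expressing hNaV1.2 with SCN1B and SCN2B. From a holding potential of −120 mV, a train of 20 pulses to 0 mV (20 ms, 25 Hz) was applied. Peak current at pulse 20 was normalized to the first pulse, and percent inhibition was calculated relative to compound-free recordings.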

[3] = tonic block of Peak INa, 0.1 Hz, holding -100 mV, read-out: Peak TB 3 uM
[4] = use-dependent block of Peak INa, 3 Hz, pulse 50, read-out: Peak UDB 3 Hz 3 uM

wild-type human cardiac sodium channel, hNav1.5, sequence (Q14524 whole entry): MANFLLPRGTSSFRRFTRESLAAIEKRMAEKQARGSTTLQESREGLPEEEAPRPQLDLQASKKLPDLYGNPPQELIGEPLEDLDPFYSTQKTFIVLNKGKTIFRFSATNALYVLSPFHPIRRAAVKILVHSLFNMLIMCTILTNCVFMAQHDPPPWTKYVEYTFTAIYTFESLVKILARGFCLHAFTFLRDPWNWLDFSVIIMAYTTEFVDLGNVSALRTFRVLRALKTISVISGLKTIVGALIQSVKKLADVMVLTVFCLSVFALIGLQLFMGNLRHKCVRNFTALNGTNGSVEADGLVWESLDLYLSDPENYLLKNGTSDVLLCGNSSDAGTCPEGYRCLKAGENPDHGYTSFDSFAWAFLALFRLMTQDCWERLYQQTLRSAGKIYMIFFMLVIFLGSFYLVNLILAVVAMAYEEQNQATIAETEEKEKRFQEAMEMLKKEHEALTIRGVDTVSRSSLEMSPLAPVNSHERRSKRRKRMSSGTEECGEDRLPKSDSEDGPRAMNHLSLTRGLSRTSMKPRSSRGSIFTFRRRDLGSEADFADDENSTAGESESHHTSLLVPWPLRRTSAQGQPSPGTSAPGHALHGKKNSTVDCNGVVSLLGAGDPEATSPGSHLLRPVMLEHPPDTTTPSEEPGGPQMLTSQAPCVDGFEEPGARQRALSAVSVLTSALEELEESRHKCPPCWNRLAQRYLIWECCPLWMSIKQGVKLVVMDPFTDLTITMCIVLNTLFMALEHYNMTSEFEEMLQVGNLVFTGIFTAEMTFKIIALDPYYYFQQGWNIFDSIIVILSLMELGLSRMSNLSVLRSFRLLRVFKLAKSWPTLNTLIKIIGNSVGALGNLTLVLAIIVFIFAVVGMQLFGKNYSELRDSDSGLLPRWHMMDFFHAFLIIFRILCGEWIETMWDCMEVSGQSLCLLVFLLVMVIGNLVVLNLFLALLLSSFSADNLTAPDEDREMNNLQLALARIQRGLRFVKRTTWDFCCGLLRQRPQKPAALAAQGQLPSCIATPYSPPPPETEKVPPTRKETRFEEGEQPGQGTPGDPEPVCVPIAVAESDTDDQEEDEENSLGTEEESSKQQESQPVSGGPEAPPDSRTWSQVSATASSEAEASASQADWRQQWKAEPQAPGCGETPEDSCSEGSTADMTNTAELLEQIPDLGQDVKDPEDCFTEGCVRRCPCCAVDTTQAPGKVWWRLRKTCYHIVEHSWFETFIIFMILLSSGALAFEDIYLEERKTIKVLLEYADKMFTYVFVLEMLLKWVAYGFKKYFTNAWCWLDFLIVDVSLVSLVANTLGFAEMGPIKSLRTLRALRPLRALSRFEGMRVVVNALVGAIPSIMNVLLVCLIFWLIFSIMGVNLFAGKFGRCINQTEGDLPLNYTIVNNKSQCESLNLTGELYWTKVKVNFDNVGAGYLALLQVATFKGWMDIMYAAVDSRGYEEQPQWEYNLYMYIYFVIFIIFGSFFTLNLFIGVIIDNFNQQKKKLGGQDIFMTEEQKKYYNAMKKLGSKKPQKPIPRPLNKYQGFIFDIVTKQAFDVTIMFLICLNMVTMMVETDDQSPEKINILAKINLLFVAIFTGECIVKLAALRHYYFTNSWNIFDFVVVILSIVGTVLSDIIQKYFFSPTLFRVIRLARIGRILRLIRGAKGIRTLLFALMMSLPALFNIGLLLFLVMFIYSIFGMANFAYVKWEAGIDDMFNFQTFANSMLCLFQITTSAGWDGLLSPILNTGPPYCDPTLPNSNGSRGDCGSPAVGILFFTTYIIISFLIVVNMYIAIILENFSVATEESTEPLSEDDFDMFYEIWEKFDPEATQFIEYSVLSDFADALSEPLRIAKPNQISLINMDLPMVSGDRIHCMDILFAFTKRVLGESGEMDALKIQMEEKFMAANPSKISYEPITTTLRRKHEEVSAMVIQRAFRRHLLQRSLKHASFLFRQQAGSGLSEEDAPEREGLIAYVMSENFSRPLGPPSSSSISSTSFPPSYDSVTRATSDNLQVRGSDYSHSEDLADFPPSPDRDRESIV
T1 sequence (Q99250 whole entry): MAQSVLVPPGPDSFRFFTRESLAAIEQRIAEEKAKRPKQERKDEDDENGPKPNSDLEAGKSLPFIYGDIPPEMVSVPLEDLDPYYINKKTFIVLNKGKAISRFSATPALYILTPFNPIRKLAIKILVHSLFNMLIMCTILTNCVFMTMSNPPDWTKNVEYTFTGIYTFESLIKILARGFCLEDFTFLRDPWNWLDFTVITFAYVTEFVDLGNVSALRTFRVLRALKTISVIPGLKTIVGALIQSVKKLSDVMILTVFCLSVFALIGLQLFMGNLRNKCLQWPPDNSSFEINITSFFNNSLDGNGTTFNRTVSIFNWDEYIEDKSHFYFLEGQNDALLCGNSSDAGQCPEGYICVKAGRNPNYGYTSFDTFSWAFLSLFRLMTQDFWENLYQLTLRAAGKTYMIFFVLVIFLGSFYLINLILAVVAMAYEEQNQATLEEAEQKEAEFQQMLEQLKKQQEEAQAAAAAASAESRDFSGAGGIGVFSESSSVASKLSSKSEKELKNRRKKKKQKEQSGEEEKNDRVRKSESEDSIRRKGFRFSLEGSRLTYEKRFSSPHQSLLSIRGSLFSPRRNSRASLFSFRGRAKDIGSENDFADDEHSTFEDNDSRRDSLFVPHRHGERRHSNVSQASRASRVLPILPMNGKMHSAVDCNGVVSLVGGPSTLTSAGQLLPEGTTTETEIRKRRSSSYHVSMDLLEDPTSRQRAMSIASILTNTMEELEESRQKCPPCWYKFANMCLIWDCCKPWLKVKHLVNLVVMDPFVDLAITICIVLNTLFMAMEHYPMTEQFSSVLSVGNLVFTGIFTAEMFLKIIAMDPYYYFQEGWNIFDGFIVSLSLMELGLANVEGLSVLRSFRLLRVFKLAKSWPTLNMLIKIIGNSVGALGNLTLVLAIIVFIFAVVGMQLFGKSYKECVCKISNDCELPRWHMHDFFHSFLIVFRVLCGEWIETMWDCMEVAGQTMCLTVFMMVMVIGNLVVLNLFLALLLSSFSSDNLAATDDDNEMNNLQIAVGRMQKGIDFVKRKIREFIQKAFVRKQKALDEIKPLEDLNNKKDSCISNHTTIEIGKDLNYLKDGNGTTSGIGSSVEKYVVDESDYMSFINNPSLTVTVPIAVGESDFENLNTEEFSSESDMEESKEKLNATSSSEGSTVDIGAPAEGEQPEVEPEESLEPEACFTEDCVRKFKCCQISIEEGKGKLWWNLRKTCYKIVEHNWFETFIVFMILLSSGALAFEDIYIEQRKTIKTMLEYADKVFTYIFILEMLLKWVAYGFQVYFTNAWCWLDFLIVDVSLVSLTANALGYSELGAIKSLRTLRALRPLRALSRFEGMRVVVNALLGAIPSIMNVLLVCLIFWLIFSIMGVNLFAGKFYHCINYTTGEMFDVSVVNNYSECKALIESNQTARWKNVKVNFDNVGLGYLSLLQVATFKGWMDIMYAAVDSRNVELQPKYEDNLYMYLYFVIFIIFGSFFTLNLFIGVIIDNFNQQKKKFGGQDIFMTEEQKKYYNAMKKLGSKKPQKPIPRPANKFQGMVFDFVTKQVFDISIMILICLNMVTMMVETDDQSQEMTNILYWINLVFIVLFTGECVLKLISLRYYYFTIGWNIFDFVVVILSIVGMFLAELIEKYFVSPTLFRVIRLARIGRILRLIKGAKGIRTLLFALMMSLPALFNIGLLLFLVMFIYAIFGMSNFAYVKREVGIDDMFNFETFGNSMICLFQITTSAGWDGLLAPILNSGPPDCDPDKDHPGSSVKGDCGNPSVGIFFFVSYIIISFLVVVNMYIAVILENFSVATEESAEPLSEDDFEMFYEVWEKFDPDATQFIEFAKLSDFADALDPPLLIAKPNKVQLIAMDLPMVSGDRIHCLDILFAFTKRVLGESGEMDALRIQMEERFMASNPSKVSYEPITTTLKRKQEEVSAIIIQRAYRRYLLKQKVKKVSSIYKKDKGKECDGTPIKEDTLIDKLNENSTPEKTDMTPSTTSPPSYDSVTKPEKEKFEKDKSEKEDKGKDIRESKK
T1 sequence (Q07699 19-218 partner): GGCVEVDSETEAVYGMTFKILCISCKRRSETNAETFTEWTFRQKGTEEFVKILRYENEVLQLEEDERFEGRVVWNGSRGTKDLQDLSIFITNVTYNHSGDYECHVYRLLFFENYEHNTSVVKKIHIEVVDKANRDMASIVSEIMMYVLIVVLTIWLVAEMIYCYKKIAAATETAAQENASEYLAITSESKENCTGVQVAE
T1 sequence (O60939 30-215 partner): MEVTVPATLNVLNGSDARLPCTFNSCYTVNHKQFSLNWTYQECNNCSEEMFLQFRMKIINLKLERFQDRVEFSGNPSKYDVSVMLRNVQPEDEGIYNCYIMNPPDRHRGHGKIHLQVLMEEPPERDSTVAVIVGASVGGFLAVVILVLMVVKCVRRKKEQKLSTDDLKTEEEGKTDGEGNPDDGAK

SMILES | inhibition at 3 µM [1, 3] [%] | inhibition at 3 µM [1, 4] [%] | inhibition at 10 µM [2] [%]
Cn1cc(COc2noc3ccc(-c4ccc(OC(F)(F)F)cc4)cc23)nn1 [Example 44] | 29.9 | 10.4 | 25.4
CC1(COc2noc3ccc(-c4ccc(OC(F)(F)F)cc4)cc23)COC1 [Example 92, 3-((3-methyloxetan-3-yl)methoxy)-5-(4-(trifluoromethoxy)phenyl)benzo[d]isoxazole] | 9.6 | < 5 | < 5
Cc1cccc(COc2noc3ccc(-c4ccc(OC(F)(F)F)cc4)cc23)n1 [Example 95, 3-((6-methylpyridin-2-yl)methoxy)-5-(4-(trifluoromethoxy)phenyl)benzo[d]isoxazole] | 6.4 | < 5 | < 5
COc1cc(-c2ccc(OC(F)(F)F)c(C)c2)cc2c(OCc3ncccn3)noc12 [Example 23, 7-methoxy-5-(3-methyl-4-(trifluoromethoxy)phenyl)-3-(pyrimidin-2-ylmethoxy)benzo[d]isoxazole] | – | < 5 | 9.9
Cc1nc(C)n(CCOc2noc3ccc(-c4ccc(OC(F)(F)F)cc4)cc23)n1 [Example 76, 3-(2-(3,5-dimethyl-1H-1,2,4-triazol-1-yl)ethoxy)-5-(4-(trifluoromethoxy)phenyl)benzo[d]isoxazole] | 49.9 | < 5 | 27.9
O=C1CC[C@H](COc2noc3ccc(-c4ccc(OC(F)(F)F)cc4)cc23)N1 [Example 61, (R)-5-(((5-(4-(trifluoromethoxy)phenyl)benzo[d]isoxazol-3-yl)oxy)methyl)pyrrolidin-2-one] | 11.8 | 6.6 | 31
CCn1cncc1COc1noc2ccc(-c3ccc(OC(F)(F)F)cc3)cc12 [Example 49, 3-((1-ethyl-1H-imidazol-5-yl)methoxy)-5-(4-(trifluoromethoxy)phenyl)benzo[d]isoxazole] | 16.9 | < 5 | 49.9
Cn1cncc1COc1noc2ccc(-c3ccc(OC(F)(F)F)cc3)cc12 [Example 50, 3-((1-methyl-1H-imidazol-5-yl)methoxy)-5-(4-(trifluoromethoxy)phenyl)benzo[d]isoxazole] | – | < 5 | 27.3
Cc1cc2onc(OCc3ncccn3)c2cc1-c1ccc(OC(F)(F)F)cc1 [Example 26, 6-methyl-3-(pyrimidin-2-ylmethoxy)-5-(4-(trifluoromethoxy)phenyl)benzo[d]isoxazole] | 27.8 | < 5 | < 5
FC(F)(F)Oc1ccc(-c2ccc3onc(OCCn4cnnc4)c3c2)cc1 [Example 63, 3-(2-(4H-1,2,4-triazol-4-yl)ethoxy)-5-(4-(trifluoromethoxy)phenyl)benzo[d]isoxazole] | 39 | 13.3 | 68
Fc1cc(-c2ccc(OC(F)(F)F)cc2)cc2c(OCc3ncccn3)noc12 [Example 17, 7-fluoro-3-(pyrimidin-2-ylmethoxy)-5-(4-(trifluoromethoxy)phenyl)benzo[d]isoxazole] | 28.9 | < 5 | < 5
Fc1cc(C(F)(F)F)ccc1-c1cc2c(OCc3ncccn3)noc2cc1F [Example 33, 6-fluoro-5-(2-fluoro-4-(trifluoromethyl)phenyl)-3-(pyrimidin-2-ylmethoxy)benzo[d]isoxazole] | 20.9 | 5.1 | 5.5
COc1ccnc(COc2noc3ccc(-c4ccc(OC(F)(F)F)cc4)cc23)c1 [Example 81, 3-((4-methoxypyridin-2-yl)methoxy)-5-(4-(trifluoromethoxy)phenyl)benzo[d]isoxazole] | 23.5 | < 5 | 21.8
FC(F)(F)Oc1ccc(-c2ccc3onc(OCc4cn[nH]c4)c3c2)cc1 [Example 45, 3-((1H-pyrazol-4-yl)methoxy)-5-(4-(trifluoromethoxy)phenyl)benzo[d]isoxazole] | 16.8 | 15.1 | 42.8
O=C1CCCN1CCOc1noc2c(F)cc(-c3ccc(OC(F)(F)F)cc3)cc12 [Example 80, 1-(2-((7-fluoro-5-(4-(trifluoromethoxy)phenyl)benzo[d]isoxazol-3-yl)oxy)ethyl)pyrrolidin-2-one] | 17.3 | 13.7 | 17.5
FC(F)(F)Oc1ccc(-c2ccc3onc(OCc4nccn4-c4ccccc4)c3c2)cc1 [Example 64, 3-((1-phenyl-1H-imidazol-2-yl)methoxy)-5-(4-(trifluoromethoxy)phenyl)benzo[d]isoxazole] | 10.1 | < 5 | 34.7
Cc1cc(-c2ccc(OC(F)(F)F)cc2)cc2c(OCCn3cncn3)noc12 [Example 89, 3-(2-(1H-1,2,4-triazol-1-yl)ethoxy)-7-methyl-5-(4-(trifluoromethoxy)phenyl)benzo[d]isoxazole] | 5.7 | < 5 | 52
FC1(F)Oc2ccc(-c3ccc4onc(OCc5ncccn5)c4c3)cc2O1 [Example 30, 5-(2,2-difluorobenzo[d][1,3]dioxol-5-yl)-3-(pyrimidin-2-ylmethoxy)benzo[d]isoxazole] | 15.2 | < 5 | < 5
Cc1cccnc1COc1noc2ccc(-c3ccc(OC(F)(F)F)cc3)cc12 [Example 93, 3-((3-methylpyridin-2-yl)methoxy)-5-(4-(trifluoromethoxy)phenyl)benzo[d]isoxazole] | 14.9 | < 5 | < 5
Cc1cc(OC(F)(F)F)ccc1-c1cc2c(OCc3ncccn3)noc2cc1C [Example 29, 6-methyl-5-(2-methyl-4-(trifluoromethoxy)phenyl)-3-(pyrimidin-2-ylmethoxy)benzo[d]isoxazole] | 8.1 | < 5 | < 5
CC(COc1noc2ccc(-c3ccc(OC(F)(F)F)cc3)cc12)n1cncn1 (stereo not shown) [Example 77, 3-(2-(1H-1,2,4-triazol-1-yl)propoxy)-5-(4-(trifluoromethoxy)phenyl)benzo[d]isoxazole] | 34.6 | 8.3 | 31.8
Fc1cc2onc(OCc3ncccn3)c2cc1-c1ccc2c(c1)OC(F)(F)O2 [Example 35, 5-(2,2-difluorobenzo[d][1,3]dioxol-5-yl)-6-fluoro-3-(pyrimidin-2-ylmethoxy)benzo[d]isoxazole] | 17.4 | < 5 | < 5
Cc1nc(C)n(C(C)COc2noc3ccc(-c4ccc(OC(F)(F)F)cc4)cc23)n1 (stereo not shown) [Example 79, 3-(2-(3,5-dimethyl-1H-1,2,4-triazol-1-yl)propoxy)-5-(4-(trifluoromethoxy)phenyl)benzo[d]isoxazole] | 26 | < 5 | 34
CC(Oc1noc2ccc(-c3ccc(OC(F)(F)F)cc3)cc12)c1ccccn1 (stereo not shown) [Example 98, 3-(1-(pyridin-2-yl)ethoxy)-5-(4-(trifluoromethoxy)phenyl)benzo[d]isoxazole] | 28.7 | < 5 | < 5
